Experimental data published in US20230265151A1, “GIP/GLP1 CO-AGONIST COMPOUNDS” (priority 2020, published 2023).
Like-named read-outs stand apart in the source and are kept apart here. *1 amine or outer side, *2 acyl side, *3 side chain or, on linkers, in order; H or OH if unused. Where a SMILES comes first, the peptide text is derived from it. Side-chain parts run from the residue outwards. [ ]: non-standard residue; d: D form. The star is where a group is joined. αMePhe(2-F) = C[C@](N)(Cc1ccccc1F)C(=O)O; γGlu = O=C(O)[C@H](CCC(=O)[*:2])N[*:1]; C14 diacid = O=C(O)CCCCCCCCCCCCC(=O)*; αMeY = C[C@](N)(Cc1ccc(O)cc1)C(=O)O; 4Pal = N[C@@H](Cc1ccncc1)C(=O)O; αMeL = CC(C)C[C@](C)(N)C(=O)O; Orn = NCCC[C@H](N)C(=O)O; AEEA = NCCOCCOCC(=O)O; Aib = CC(C)(N)C(=O)O

Columns and labels:
Type in all cases: cell-based
hGCGR = target: T1, hGCGR (Homo sapiens, UniProt P47871); assay: Functional cAMP formation (HTRF) in HEK-293 clonal cells expressing hGCGR, 0.1% bovine casein, without or with 1.0% human serum albumin; conditions: geometric mean
T1 construct: expressed in transfected cells
T1 sequence (P47871 26-477): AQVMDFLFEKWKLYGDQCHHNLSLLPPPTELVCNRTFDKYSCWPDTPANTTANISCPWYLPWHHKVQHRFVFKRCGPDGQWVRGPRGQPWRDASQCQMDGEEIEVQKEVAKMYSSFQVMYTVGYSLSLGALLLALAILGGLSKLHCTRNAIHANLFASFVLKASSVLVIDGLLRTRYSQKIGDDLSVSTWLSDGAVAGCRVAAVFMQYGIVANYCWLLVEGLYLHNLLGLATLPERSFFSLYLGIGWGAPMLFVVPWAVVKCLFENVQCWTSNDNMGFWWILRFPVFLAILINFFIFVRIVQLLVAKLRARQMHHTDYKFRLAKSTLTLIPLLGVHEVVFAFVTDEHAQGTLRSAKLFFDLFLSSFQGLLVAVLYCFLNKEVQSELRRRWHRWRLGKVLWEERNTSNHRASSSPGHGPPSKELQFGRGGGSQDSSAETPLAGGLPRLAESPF
Method in brief: (§1)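 Readings of the HTRF 665/620 nm ratio, which falls as cAMP rises, were converted to nM cAMP using a standard curve after 30 min peptide exposure at 37° C.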

hGIPR = target: T2, hGIPR (Homo sapiens, UniProt P48546); assay: Functional cAMP formation (HTRF) in HEK-293 clonal cells expressing hGIPR, 0.1% bovine casein, without or with 1.0% human serum albumin; conditions: for EC50: geometric mean
T2 construct: expressed in transfected cells
T2 sequence (P48546 22-466): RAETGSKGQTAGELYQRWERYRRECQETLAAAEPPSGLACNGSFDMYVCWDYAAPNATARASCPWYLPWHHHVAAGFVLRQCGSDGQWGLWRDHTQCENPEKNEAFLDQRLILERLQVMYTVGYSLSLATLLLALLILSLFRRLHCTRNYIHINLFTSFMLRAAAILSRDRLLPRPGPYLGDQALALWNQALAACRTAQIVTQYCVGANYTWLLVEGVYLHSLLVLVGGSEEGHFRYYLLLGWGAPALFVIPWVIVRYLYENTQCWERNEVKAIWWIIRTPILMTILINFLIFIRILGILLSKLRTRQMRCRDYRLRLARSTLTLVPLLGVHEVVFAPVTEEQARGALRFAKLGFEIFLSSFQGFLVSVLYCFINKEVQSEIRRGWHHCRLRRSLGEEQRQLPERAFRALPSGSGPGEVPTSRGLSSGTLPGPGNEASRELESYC
Method in brief: as §1

hGLP-1R = hGLP-1R (Homo sapiens, UniProt P43220); assay: Functional cAMP formation (HTRF) in HEK-293 clonal cells expressing hGLP-1R, 0.1% bovine casein, without or with 1.0% human serum albumin; set-up: expressed in transfected cells; conditions: for EC50: geometric mean
Chain of hGLP-1R (P43220 24-463): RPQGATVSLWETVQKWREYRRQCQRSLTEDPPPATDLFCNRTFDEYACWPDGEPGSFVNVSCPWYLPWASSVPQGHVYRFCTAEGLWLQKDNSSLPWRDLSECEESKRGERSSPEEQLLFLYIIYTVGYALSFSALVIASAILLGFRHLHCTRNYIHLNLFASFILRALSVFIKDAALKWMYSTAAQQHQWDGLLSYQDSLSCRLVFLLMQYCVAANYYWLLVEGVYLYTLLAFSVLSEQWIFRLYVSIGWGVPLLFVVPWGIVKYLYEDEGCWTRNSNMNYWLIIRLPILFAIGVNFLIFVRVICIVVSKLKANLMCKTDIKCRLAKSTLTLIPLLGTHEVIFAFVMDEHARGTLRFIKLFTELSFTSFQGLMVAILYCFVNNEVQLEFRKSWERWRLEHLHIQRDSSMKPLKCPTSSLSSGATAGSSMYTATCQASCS
Method in brief: as §1

[1] = hGCGR EC50, nM (SEM, n), cAMP, incubated at 37° C., 0.1% bovine casein (no human serum albumin)
[2] = hGLP-1R EC50, nM (SEM, n), cAMP, incubated at 37° C., 0.1% bovine casein (no human serum albumin)
[3] = 0.1% bovine casein and 1.0% human serum albumin, 37° C., read-out: hGCGR EC50, nM (SEM, n)
[4] = cAMP, incubated at 37° C., 0.1% bovine casein (no human serum albumin), read-out: hGCGR EC50, nM (SEM, n)
[5] = HEK293, 0.1% bovine casein and 1.0% human serum albumin, 37° C., percent of maximal response to GIP(1-42)NH2, read-out: hGIPR Emax, % ± SEM
[6] = cAMP, incubated at 37° C., 0.1% bovine casein (no human serum albumin), read-out: hGIPR EC50, nM (SEM, n)
[7] = HEK293, 0.1% bovine casein and 1.0% human serum albumin, 37° C., percent of maximal response to GLP-1(7-36)NH2, read-out: hGLP-1R Emax, % ± SEM
[8] = cAMP, incubated at 37° C., 0.1% bovine casein (no human serum albumin), read-out: hGLP-1R EC50, nM (SEM, n)

SMILES	EC50 (hGCGR; hGCGR EC50, nM (SEM, n), 0.1% bovine casein and 1.0% human serum albumin, 37° C.)	EC50 (hGCGR; [1])	Emax (hGIPR; HEK293, read-out: hGIPR Emax, % ± SEM, 0.1% bovine casein and 1.0% human serum albumin, 37° C., percent of maximal response to GIP(1-42)NH2)	EC50 (hGIPR; hGIPR EC50, nM (SEM, n), 0.1% bovine casein and 1.0% human serum albumin, 37° C.)	EC50 (hGIPR; hGIPR EC50, nM (SEM, n), cAMP, incubated at 37° C., 0.1% bovine casein (no human serum albumin))	Emax (hGLP-1R; HEK293, read-out: hGLP-1R Emax, % ± SEM, 0.1% bovine casein and 1.0% human serum albumin, 37° C., percent of maximal response to GLP-1(7-36)NH2)	Emax (hGLP-1R; HEK293, read-out: hGLP-1R Emax, % ± SEM, percent of maximal response to GLP-1(7-36)NH2, 37° C., 0.1% bovine casein, arithmetic mean)	EC50 (hGLP-1R; [2])	EC50 (hGCGR; [3])	EC50 (hGCGR; [4])	EC50 (hGIPR; 0.1% bovine casein and 1.0% human serum albumin, 37° C., read-out: hGIPR EC50, nM (SEM, n))	Emax (hGIPR; [5])	Emax (hGIPR; HEK293, percent of maximal response to GIP(1-42)NH2, 37° C., 0.1% bovine casein, arithmetic mean, read-out: hGIPR Emax, % ± SEM)	EC50 (hGIPR; [6])	EC50 (hGLP-1R; 0.1% bovine casein and 1.0% human serum albumin, 37° C., read-out: hGLP-1R EC50, nM (SEM, n))	Emax (hGLP-1R; [7])	Emax (hGLP-1R; HEK293, percent of maximal response to GLP-1(7-36)NH2, 37° C., 0.1% bovine casein, arithmetic mean, read-out: hGLP-1R Emax, % ± SEM)	EC50 (hGLP-1R; [8])	Emax (hGIPR; HEK293, read-out: hGIPR Emax, % ± SEM, percent of maximal response to GIP(1-42)NH2, 37° C., 0.1% bovine casein, arithmetic mean)
CC[C@H](C)[C@H](NC(=O)[C@H](CC(C)C)NC(=O)[C@](C)(Cc1ccc(O)cc1)NC(=O)[C@@H](CCC(=O)O)NC(=O)[C@@H](NC(=O)[C@H](Cc1ccccc1)NC(=O)[C@H](CCCCNC(=O)COCCOCCNC(=O)COCCOCCNC(=O)CC[C@H](NC(=O)CCCCCCCCCOc1ccc(C(=O)O)cc1)C(=O)O)NC(=O)C(C)(C)NC(=O)[C@H](CCC(N)=O)NC(=O)[C@H](C)NC(=O)[C@H](CCCCNC(=O)COCCOCCNC(=O)COCCOCCNC(=O)CC[C@H](NC(=O)CCCCCCCCCOc1ccc(C(=O)O)cc1)C(=O)O)NC(=O)[C@H](CCCN)NC(=O)[C@H](CC(=O)O)NC(=O)[C@H](CC(C)C)NC(=O)[C@](C)(CC(C)C)NC(=O)[C@@H](NC(=O)C(C)(C)NC(=O)[C@H](Cc1ccncc1)NC(=O)[C@H](CC(=O)O)NC(=O)[C@H](CO)NC(=O)[C@@H](NC(=O)[C@](C)(Cc1ccccc1F)NC(=O)[C@@H](NC(=O)CNC(=O)[C@H](CCC(=O)O)NC(=O)C(C)(C)NC(=O)[C@@H](N)Cc1ccc(O)cc1)[C@@H](C)O)[C@@H](C)O)[C@@H](C)CC)[C@@H](C)CC)C(=O)N[C@@H](CCC(=O)O)C(=O)NCC(=O)NCC(=O)N1CCC[C@H]1C(=O)N[C@@H](CO)C(=O)N[C@@H](CO)C(=O)NCC(=O)N[C@@H](C)C(=O)N1CCC[C@H]1C(=O)N1CCC[C@H]1C(=O)N1CCC[C@H]1C(=O)N[C@@H](CO)C(N)=O [Example 243]	> 9950 nM	> 9950 nM	90.5%	0.728 nM	0.0154 nM	114%	93.2%	0.86 nM											
CC[C@H](C)[C@H](NC(=O)[C@H](CC(C)C)NC(=O)[C@](C)(Cc1ccc(O)cc1)NC(=O)[C@@H](CCC(=O)O)NC(=O)[C@@H](NC(=O)[C@H](Cc1ccccc1)NC(=O)[C@H](CCC(=O)O)NC(=O)C(C)(C)NC(=O)[C@H](CCC(N)=O)NC(=O)[C@H](C)NC(=O)[C@H](CCCCNC(=O)COCCOCCNC(=O)COCCOCCNC(=O)CC[C@H](NC(=O)CCCCCCCCCCCCC(=O)O)C(=O)O)NC(=O)[C@H](CCCN)NC(=O)[C@H](CC(=O)O)NC(=O)[C@H](CC(C)C)NC(=O)[C@](C)(CC(C)C)NC(=O)[C@@H](NC(=O)[C@H](CO)NC(=O)[C@H](Cc1ccncc1)NC(=O)[C@H](CC(=O)O)NC(=O)[C@H](CO)NC(=O)[C@@H](NC(=O)[C@](C)(Cc1ccccc1F)NC(=O)[C@@H](NC(=O)CNC(=O)[C@H](CCC(=O)O)NC(=O)C(C)(C)NC(=O)[C@@H](N)Cc1ccc(O)cc1)[C@@H](C)O)[C@@H](C)O)[C@@H](C)CC)[C@@H](C)CC)C(=O)N[C@@H](CCC(=O)O)C(=O)NCC(=O)NCC(=O)N[C@@H](CCCCNC(=O)COCCOCCNC(=O)COCCOCCNC(=O)CC[C@H](NC(=O)CCCCCCCCCCCCC(=O)O)C(=O)O)C(=O)N[C@@H](CO)C(=O)N[C@@H](CO)C(=O)NCC(=O)N[C@@H](CCCN)C(=O)N1CCC[C@H]1C(=O)N1CCC[C@H]1C(=O)N1CCC[C@H]1C(=O)N[C@@H](CO)C(N)=O [Example 153] (H-Y[Aib]EGT[αMePhe(2-F)]TSD[4Pal]SI[αMeL]LD[Orn]K([AEEA-AEEA-γGlu-C14 diacid])AQ[Aib]EFI[dE][αMeY]LIEGGK([AEEA-AEEA-γGlu-C14 diacid])SSG[Orn]PPPS-NH2)									> 9950 nM	> 9950 nM	1.15 nM	94.1 ± 3.21%	97.8 ± 2.74%	0.0277 nM	40.8 nM	98.2 ± 5.4%	91.8 ± 4.63%	1.1 nM	
CC[C@H](C)[C@H](NC(=O)[C@H](CC(C)C)NC(=O)[C@](C)(Cc1ccc(O)cc1)NC(=O)[C@@H](CCC(=O)O)NC(=O)[C@@H](NC(=O)[C@H](Cc1ccccc1)NC(=O)[C@H](CCC(=O)O)NC(=O)C(C)(C)NC(=O)[C@H](CCC(N)=O)NC(=O)[C@H](C)NC(=O)[C@H](CCCCNC(=O)COCCOCCNC(=O)COCCOCCNC(=O)CC[C@H](NC(=O)CCCCCCCOc1ccc(C(=O)O)cc1)C(=O)O)NC(=O)[C@H](CCCN)NC(=O)[C@H](CC(=O)O)NC(=O)[C@H](CC(C)C)NC(=O)[C@](C)(CC(C)C)NC(=O)[C@@H](NC(=O)[C@H](CO)NC(=O)[C@H](Cc1ccncc1)NC(=O)[C@H](CC(=O)O)NC(=O)[C@H](CO)NC(=O)[C@@H](NC(=O)[C@](C)(Cc1ccccc1F)NC(=O)[C@@H](NC(=O)CNC(=O)[C@H](CCC(=O)O)NC(=O)C(C)(C)NC(=O)[C@@H](N)Cc1ccc(O)cc1)[C@@H](C)O)[C@@H](C)O)[C@@H](C)CC)[C@@H](C)CC)C(=O)N[C@@H](CCC(=O)O)C(=O)NCC(=O)NCC(=O)N[C@@H](CCCCNC(=O)COCCOCCNC(=O)COCCOCCNC(=O)CC[C@H](NC(=O)CCCCCCCOc1ccc(C(=O)O)cc1)C(=O)O)C(=O)N[C@@H](CO)C(=O)N[C@@H](CO)C(=O)NCC(=O)N[C@@H](C)C(=O)N1CCC[C@H]1C(=O)N1CCC[C@H]1C(=O)N1CCC[C@H]1C(=O)N[C@@H](CO)C(N)=O [Example 126]		> 9950 nM						1.69 nM											91.8%
CC[C@H](C)[C@H](NC(=O)[C@H](CC(C)C)NC(=O)[C@](C)(Cc1ccc(O)cc1)NC(=O)[C@@H](CCC(=O)O)NC(=O)[C@@H](NC(=O)[C@H](Cc1ccccc1)NC(=O)[C@H](CCC(=O)O)NC(=O)C(C)(C)NC(=O)[C@H](CCC(N)=O)NC(=O)[C@H](C)NC(=O)[C@H](CCCCNC(=O)COCCOCCNC(=O)COCCOCCNC(=O)CC[C@H](NC(=O)CCCCCCCCCCCCC(=O)O)C(=O)O)NC(=O)[C@H](CCCN)NC(=O)[C@H](CC(=O)O)NC(=O)[C@H](CC(C)C)NC(=O)[C@](C)(CC(C)C)NC(=O)[C@@H](NC(=O)C(C)(C)NC(=O)[C@H](Cc1ccc(O)cc1)NC(=O)[C@H](CC(=O)O)NC(=O)[C@H](CO)NC(=O)[C@@H](NC(=O)[C@](C)(Cc1ccccc1F)NC(=O)[C@@H](NC(=O)CNC(=O)[C@H](CCC(=O)O)NC(=O)C(C)(C)NC(=O)[C@@H](N)Cc1ccc(O)cc1)[C@@H](C)O)[C@@H](C)O)[C@@H](C)CC)[C@@H](C)CC)C(=O)N[C@@H](CCC(=O)O)C(=O)NCC(=O)NCC(=O)N1CCC[C@H]1C(=O)N[C@@H](CO)C(=O)N[C@@H](CO)C(=O)NCC(=O)N[C@@H](C)C(=O)N1CCC[C@H]1C(=O)N1CCC[C@H]1C(=O)N1CCC[C@H]1C(=O)N[C@@H](CO)C(=O)N[C@@H](CCCCNC(=O)COCCOCCNC(=O)COCCOCCNC(=O)CC[C@H](NC(=O)CCCCCCCCCCCCC(=O)O)C(=O)O)C(N)=O [Example 232]									> 9950 nM	> 9950 nM		91.5%		0.0192 nM		95.4%		0.565 nM	
